Assay results: US6025330A, “Inhibitors of fibrin cross-linking and/or transglutaminases” (BioPharm Research & Development Ltd., priority 1995, dated 2000)
Values belong to the compound of their own block, whether it stands above or below them. No end group written: not given here.

How the values were obtained:
[1] = molecular target: T1, human plasma factor XIIIa (Homo sapiens, UniProt P00488); assay: production of ammonia from casein on ethylamine incorporation (glutamate dehydrogenase/NADH coupled); type: biochemical; conditions: control 4.14
T1 construct: from tissue; host or cells: human plasma (defibrinogenated, not purified further)
T1 sequence (P00488 39-732 limits assumed): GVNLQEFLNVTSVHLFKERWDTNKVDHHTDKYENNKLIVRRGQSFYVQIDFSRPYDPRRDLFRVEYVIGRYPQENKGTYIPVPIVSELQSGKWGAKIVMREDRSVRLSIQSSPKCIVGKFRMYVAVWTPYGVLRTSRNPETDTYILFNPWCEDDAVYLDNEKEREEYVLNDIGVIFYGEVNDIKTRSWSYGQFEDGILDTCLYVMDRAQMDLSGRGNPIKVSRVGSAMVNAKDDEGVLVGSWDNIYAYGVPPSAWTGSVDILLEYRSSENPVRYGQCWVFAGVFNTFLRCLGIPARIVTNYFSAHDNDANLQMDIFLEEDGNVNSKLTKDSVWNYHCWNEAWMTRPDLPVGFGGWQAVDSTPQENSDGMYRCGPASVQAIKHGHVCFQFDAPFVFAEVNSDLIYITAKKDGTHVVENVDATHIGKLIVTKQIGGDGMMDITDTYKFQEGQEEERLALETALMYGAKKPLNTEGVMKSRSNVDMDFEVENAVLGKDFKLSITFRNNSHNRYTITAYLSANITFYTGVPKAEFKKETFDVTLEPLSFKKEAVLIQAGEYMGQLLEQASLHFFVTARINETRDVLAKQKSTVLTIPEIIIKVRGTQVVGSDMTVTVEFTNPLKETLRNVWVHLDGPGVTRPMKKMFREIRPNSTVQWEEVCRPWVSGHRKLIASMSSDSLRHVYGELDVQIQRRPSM
Method: The transglutaminase activity of human plasma factor XIIIa was measured spectrophotometrically by a modification of the method of Muszbek, Polgar and Fesus; "Kinetic determination of blood coagulation factor XIII in plasma." Clin Chem 31 (1985) pp. 35-40. This method measures the production of ammonia by linking it through the glutamate dehydrogenase reaction to NADH oxidation which can be monitored by the change in absorption at 340 nm. Factor XIII was activated by incubating defibrinated human plasma (2 ml) and 200 mM CaCl2 (0.1 ml) with 1000 unit/ml bovine thrombin (0.1 ml) at 37° C. After 15 min the reaction was stopped by the addition of 260 antithrombin units of hirudin. The reaction cuvette contained: 2.5 mM dithiothreitol (0.1 ml), 40 mg/ml dephosphorylated β-casein (0.05 ml), 70 mM ethylamine (0.1 ml), 12 mM sodium 2-ketoglutarate (0.1 ml), 4 mM NADH (0.1 ml), 1.2 mM ADP (0.1 ml), 40 unit/ml glutamate dehydrogenase (0.1 ml), 70 mM HEPES buffer pH7.5 (0.25 ml) and this was placed in a spectrophotometer at 20° C. All components were dissolved in 70 mM HEPES buffer pH 7.5 where possible. The reaction was started by the addition of the activated factor XIII (0.2 ml) and monitored at 340 nm. The assay was validated with the use of factor XIII-deficient plasma (Sigma).
Test samples were added in 0.1 ml of the HEPES buffer to the reaction cuvette. […]

factor XIIIa = assay: clot solubility assay (fibrin clot in urea); type: biochemical, bovine; conditions: iodoacetamide 100 μM, lowered absorbance = clot soluble in urea
Method: In a first experiment A, the proboscis, anterior and posterior salivary glands of a leech of the species Haementeria ghilianii were homogenised together in a Potter homogeniser in 10 mM Tris HCl, 0.85% w/v NaCl pH7.0 (1 ml), and centrifuged at 13000 rpm. The supernatant was assayed in a clot solubility assay similar to that of Tymiak, Tuttle, Kimball, Wang and Lee "A simple and rapid screen for inhibitors of factor XIIIa". J. Antibiotics 46 (1993) pp. 204-206. In a second experiment B, the proboscis, anterior and posterior salivary glands were dissected from a leech of the species Haementeria ghilianii and homogenised separately in 0.2 ml aliquots of the buffer. The effect was compared with extracts of the proboscis, anterior and posterior salivary glands from two leeches of the species Haementeria officinalis prepared in 0.2 ml buffer. The test samples (30 μl) were added to a solution of 10 mg/ml crude bovine fibrinogen which contains factor XIII (30 μl). The reaction was started by adding 6.25 units/ml bovine thrombin containing 9 mM CaCl2 (40 μl). A clot formed in 15 min when 8M urea (160 μl) was added and left in contact with the clot. After 30 min, the absorbance resulting from the clot's opalescence was read at 405 nm. Lowered absorbance indicates solubility of the clot resulting from inhibition of cross-linking. […] The numerical values quoted in the table are absorbance at 405 nm.

thrombin = thrombin chromogenic substrate assay (S2238); type: biochemical; conditions: 0.046 μg/ml
Method: (§1) The effect of Tridegin variant 1 purified as in Example 6 was tested on the coagulation enzyme, thrombin. with a chromogenic substrate assay. 1 mM S2238 was incubated in 50 mM Tris HCl pH 8.3 and the reaction was started by adding thrombin 0.15 U/ml final concentration. The reaction was monitored in a spectrophotometer at 405 nm.

human factor Xa = human factor Xa (Homo sapiens, UniProt P00742); assay: factor Xa chromogenic substrate assay (S2765); type: biochemical; conditions: 0.046 μg/ml
Chain of human factor Xa (P00742 41-179 limits assumed): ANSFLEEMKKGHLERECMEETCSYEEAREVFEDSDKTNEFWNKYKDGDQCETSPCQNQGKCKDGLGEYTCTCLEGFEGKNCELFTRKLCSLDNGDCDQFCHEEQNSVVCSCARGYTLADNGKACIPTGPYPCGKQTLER
Chain of human factor Xa (P00742 235-488 limits assumed): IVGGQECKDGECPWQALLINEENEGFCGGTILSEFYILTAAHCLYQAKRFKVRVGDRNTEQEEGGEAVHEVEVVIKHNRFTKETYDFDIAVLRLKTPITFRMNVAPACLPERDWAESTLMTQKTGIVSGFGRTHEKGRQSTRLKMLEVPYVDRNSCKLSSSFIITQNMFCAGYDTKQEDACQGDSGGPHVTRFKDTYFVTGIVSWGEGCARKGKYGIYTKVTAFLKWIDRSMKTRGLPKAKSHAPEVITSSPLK
Method: as §1
The effect of the Tridegin purified as in Example 6 was tested on factor Xa. 2 mM S2765 was incubated in 50 mM Tris HCl pH 8.3 and the reaction was started by adding human factor Xa. The assay was performed as in Example 11. […] This confirms that, not only is the transglutaminase inhibitor different from previously known inhibitors of factor Xa, but the methods exemplified to purify the transglutaminase inhibitor successfully remove the factor Xa inhibitors.

- Change in absorbance ([1]; 77 mM in cuvette): 0.024 mAbs/min
Compound: O=C(O)CN(CCOCCOCCN(CC(=O)O)CC(=O)O)CC(=O)O [EGTA]

Compound: NC(=O)CI [Iodoacetamide]
- absorbance at 405 nm, Experiment A (factor XIIIa; Tris buffer 0.74): 0.26
- absorbance at 405 nm, Experiment B (factor XIIIa; Tris buffer 0.83): 0.42
- Change in absorbance ([1]; 0.077 mM in cuvette): 0.356 mAbs/min

Compound: Hirudin
- inhibitory effect on thrombin (thrombin): 95%
- Rate of Reaction (thrombin; control 49.8): 2.63 mAbs/min

- inhibition of factor Xa (human factor Xa): 89.9%
- Reaction Rate (human factor Xa; control 49.8): 5.53 mAbs/min
Compound: rTAP: recombinant tick anticoagulant peptide, a known inhibitor of factor Xa (YNRLCIKPRDWIDECDSNEGGERAYFRNGKGGCDSFWICPEDHTGADYYSSYRDCFNACI; ends and bridges not checked; cysteine pairing not given here; UniProt P17726 1-60, looked up)
